In patent US12281363B2, “Methods for detecting antiviral-drug resistant virus” (Secretary of State for Health and Social Care, priority 2018, dated 2025):
Read-outs that look alike come from different tables or passages of the source.

Test system: HSV-2
Test: Plaque reduction assay, HSV-2 clinical isolates on Vero cells
Assay type: cell-based
Conditions: Human alphaherpesvirus 2, Vero
Description: Viral isolates were used to infect a sub-confluent monolayer of Vero cells at a concentration of 75 or 50 plaque forming units (PFU) per well for HSV-1 and HSV-2, respectively. […] CMC medium typically used to create a semisolid interface and prevents indiscrimate viral spreading. Other materials (e.g. agar) may also be used to create this interface.
Cells were fixed with 10% formalin and stained with crystal violet before enumeration of the plaques (microscopic observation or use of fluorescent antibodies for detection is also suitable). The data obtained from these experiments were then expressed as percent inhibition of viral infectivity relative to the no drug control.
Definitions of phenotypic drug susceptibility classification as sensitive or resistant were as follows: ACV, <3 μM or >40 μM; PCV, <10 μM or >40 μM; CDV, <24 μM or >30 μM; FOS, <250 μM or >400 μM; and ACV, <6.5 μM or >40 μM; PCV, <38 μM or >40 μM; FOS, <250 μM or >400 μM for HSV-1 and HSV-2, respectively. Any IC50 values falling in between these sensitive and resistant cut-offs were reported as intermediate resistance.
The phenotype (i.e. reactivity to a drug) of the virus was characterised by the plaque reduction assay as described above. The present inventors have characterised the resistance-causing phenotype of a large number of TK and DNA pol mutations.

Nc1nc2c(ncn2CCC(CO)CO)c(=O)[nH]1 [Penciclovir, penciclovir]
IC50 (isolate HPG001, HSV-2 TK A125T (373G>A), read-out: Drug susceptibility (IC50 value)): 8.2 µM | IC50 (isolate HPG001, HSV-2 TK A125T (373G>A), read-out: Drug susceptibility Penciclovir (PCV)): < 38 µM | IC50 (isolate HPG001, HSV-2 pol H714R (2141A>G), read-out: Drug susceptibility (IC50 value)): 8.2 µM | IC50 (isolate HPG001, HSV-2 pol H714R (2141A>G), read-out: Drug susceptibility Penciclovir (PCV)): < 38 µM | IC50 (isolate HPG004, HSV-2 pol M494T (1481T>C), also pol S729N, read-out: Drug susceptibility (IC50 value)): > 160 µM | IC50 (isolate HPG004, HSV-2 pol M494T (1481T>C), also pol S729N, read-out: Drug susceptibility Penciclovir (PCV)): > 40 µM | IC50 (isolate HPG007, HSV-2 pol R628G (1882C>G), read-out: Drug susceptibility (IC50 value)): > 160 µM | IC50 (isolate HPG007, HSV-2 pol R628G (1882C>G), read-out: Drug susceptibility Penciclovir (PCV)): > 40 µM | IC50 (isolate HPG017, HSV-2 TK Q186H (558G>T), read-out: Drug susceptibility (IC50 value)): 64.7 µM | IC50 (isolate HPG017, HSV-2 TK Q186H (558G>T), read-out: Drug susceptibility Penciclovir (PCV)): > 40 µM | IC50 (isolate HPG022, HSV-2 TK E213D (639A>C), read-out: Drug susceptibility (IC50 value)): 26.9 µM | IC50 (isolate HPG022, HSV-2 TK E213D (639A>C), read-out: Drug susceptibility Penciclovir (PCV)): < 38 µM | IC50 (isolate HPG022, HSV-2 pol D174Y (520G>T), read-out: Drug susceptibility (IC50 value)): 26.9 µM | IC50 (isolate HPG022, HSV-2 pol D174Y (520G>T), read-out: Drug susceptibility Penciclovir (PCV)): < 38 µM | IC50 (isolate HPG023, HSV-2 TK Q186H (558G>T), read-out: Drug susceptibility (IC50 value)): 31.1 µM | IC50 (isolate HPG023, HSV-2 TK Q186H (558G>T), read-out: Drug susceptibility Penciclovir (PCV)): < 38 µM | IC50 (isolate HPG024, HSV-2 TK E213D (639A>C), read-out: Drug susceptibility (IC50 value)): 9.08 µM | IC50 (isolate HPG024, HSV-2 TK E213D (639A>C), read-out: Drug susceptibility Penciclovir (PCV)): < 38 µM | IC50 (isolate HPG028, HSV-2 TK 98stop or A94fs (276delG, 278delG, 279delG, or 280delG), read-out: Drug susceptibility (IC50 value)): > 160 µM | IC50 (isolate HPG028, HSV-2 TK 98stop or A94fs (276delG, 278delG, 279delG, or 280delG), read-out: Drug susceptibility Penciclovir (PCV)): > 40 µM | IC50 (isolate HPG028, HSV-2 pol E776Q (2326G>C), also TK deletion (G) nt 276-280, read-out: Drug susceptibility (IC50 value)): > 160 µM | IC50 (isolate HPG028, HSV-2 pol E776Q (2326G>C), also TK deletion (G) nt 276-280, read-out: Drug susceptibility Penciclovir (PCV)): > 40 µM | IC50 (isolate HPG028, HSV-2 pol R775C, R775W (2323C>T; 2325C>G), also TK deletion (G) nt 276-280, read-out: Drug susceptibility (IC50 value)): > 160 µM | IC50 (isolate HPG028, HSV-2 pol R775C, R775W (2323C>T; 2325C>G), also TK deletion (G) nt 276-280, read-out: Drug susceptibility Penciclovir (PCV)): > 40 µM | IC50 (isolate HPG030, HSV-2 TK Q90stop (268C>T), read-out: Drug susceptibility (IC50 value)): > 160 µM | IC50 (isolate HPG030, HSV-2 TK Q90stop (268C>T), read-out: Drug susceptibility Penciclovir (PCV)): > 40 µM | IC50 (isolate HPG030, HSV-2 pol E761K (2281G>A), also TK Q90stop, read-out: Drug susceptibility (IC50 value)): > 160 µM | IC50 (isolate HPG030, HSV-2 pol E761K (2281G>A), also TK Q90stop, read-out: Drug susceptibility Penciclovir (PCV)): > 40 µM | IC50 (isolate HPG034, HSV-2 TK L313S (938A>C), read-out: Drug susceptibility Penciclovir (PCV)): > 40 µM | IC50 (isolate HPG036, HSV-2 TK E84K (250G>A), read-out: Drug susceptibility (IC50 value)): > 160 µM | IC50 (isolate HPG036, HSV-2 TK E84K (250G>A), read-out: Drug susceptibility Penciclovir (PCV)): > 40 µM | IC50 (isolate HPG038, HSV-2 TK R34C (100C>T), read-out: Drug susceptibility (IC50 value)): 9.64 µM | IC50 (isolate HPG038, HSV-2 TK R34C (100C>T), read-out: Drug susceptibility Penciclovir (PCV)): < 38 µM | IC50 (isolate HPG044, HSV-2 TK M86L (256A>C), read-out: Drug susceptibility (IC50 value)): > 160 µM | IC50 (isolate HPG044, HSV-2 TK M86L (256A>C), read-out: Drug susceptibility Penciclovir (PCV)): > 40 µM | IC50 (isolate HPG048, HSV-2 TK Q90stop (268C>T), read-out: Drug susceptibility (IC50 value)): > 160 µM | IC50 (isolate HPG048, HSV-2 TK Q90stop (268C>T), read-out: Drug susceptibility Penciclovir (PCV)): > 40 µM | IC50 (isolate HPG048, HSV-2 pol E761K (2281G>A), also TK Q90stop, read-out: Drug susceptibility (IC50 value)): > 160 µM | IC50 (isolate HPG048, HSV-2 pol E761K (2281G>A), also TK Q90stop, read-out: Drug susceptibility Penciclovir (PCV)): > 40 µM | IC50 (isolate HPG057, HSV-2 TK 98stop or A94fs (276delG, 278delG, 279delG, or 280delG), read-out: Drug susceptibility (IC50 value)): > 160 µM | IC50 (isolate HPG057, HSV-2 TK 98stop or A94fs (276delG, 278delG, 279delG, or 280delG), read-out: Drug susceptibility Penciclovir (PCV)): > 40 µM | IC50 (isolate HPG058, HSV-2 TK 183stop or P154fs (458delC, 459delC, 460delC, or 461delC), read-out: Drug susceptibility (IC50 value)): > 160 µM | IC50 (isolate HPG058, HSV-2 TK 183stop or P154fs (458delC, 459delC, 460delC, or 461delC), read-out: Drug susceptibility Penciclovir (PCV)): > 40 µM | IC50 (read-out: Drug susceptibility (IC50 value), isolate HPG034, HSV-2 TK L313S (938A>C)): > 160 µM | IC50 (read-out: Drug susceptibility (IC50 value), isolate HPG056, HSV-2 pol M447L (1339A>C)): 8.61 µM | IC50 (read-out: Drug susceptibility Penciclovir (PCV), isolate HPG056, HSV-2 pol M447L (1339A>C)): < 38 µM
